39 compounds from the Deep4Chem optical property database can be followed below.

Each structure is given as a SMILES string. Values joined by “and” are separate entries in the source; they are usually repeats but may differ in a detail not shown here. Identical values can stand only once.

This series is described as follows: solvent given as SMILES.
Setting [1] is: in O=P(c1ccccc1)(c1ccccc1)c1ccccc1Oc1ccccc1P(=O)(c1ccccc1)c1ccccc1.

For the compound `COCCOCCOCCOCC(COCCOCCOCCOC)Oc1cc(/C=C/c2ccc(C=C(C#N)C#N)cc2)c(OC(COCCOCCOCCOC)COCCOCCOCCOC)cc1/C=C/c1ccc(C=C(C#N)C#N)cc1`, the fluorescence lifetime (in ClCCl) worked out at 1.7 ns.
Turning to `Cc1cc(=O)oc2c1cc(Cl)c1occ(C)c12`, the fluorescence lifetime turned out to be 0.07 ns (in C1COCCO1), 0.27 ns (in CC#N), 0.21 ns (in CCO) and 0.72 ns (in OCC(F)(F)F).
For the compound `N#CC(C#N)=Cc1ccc(-c2ccc(N(c3ccccc3)c3ccccc3)cc2)o1`, the fluorescence lifetime (in ClC(Cl)Cl) came out at 2.73 ns.
With `CCN(CC)c1ccc2cc(-c3ccc(-c4ccc(-c5cc6ccc(N(CC)CC)cc6oc5=O)cc4)cc3)c(=O)oc2c1`, for the setting “in ClCCl”, the fluorescence lifetime was 10.1 ns.
With `COc1cccc2c1-c1ccccc1C2=O`, the fluorescence lifetime (in C1CCCCC1) was found to be 10.7 ns and the fluorescence lifetime (in CC#N) stood at 1.8 ns.
On to `COc1ccc(C(=O)NN2C3=C(CC4=C2CCCC4=O)C(=O)CCC3)cc1`, for which the fluorescence lifetime was determined as 6.2 ns (in CC#N); 5.4 ns (in CC(C)=O); 6.1 ns (in CCCCCO); 4.7 ns (in CO); 6.2 ns (in ClC(Cl)Cl); 8.3 ns (in ClCCl).
Regarding `CC(=O)c1ccc(-c2cc(C)[o+]c(C)c2)cc1`, for the setting “in ClCCl”, the fluorescence lifetime came out at 2 ns.
With `C=CCOc1nnc(OCCC(F)(F)C(F)(F)C(F)(F)C(F)(F)C(F)(F)C(F)(F)C(F)(F)C(F)(F)F)nn1`, the fluorescence lifetime is, setting by setting: (in ClCCl) 63.4 ns; (in OCC(F)(F)F) 8.5 ns.
Consider `COc1ccc(C2=C3C(C)=CC(C)=[N+]3[B-](F)(F)n3c(C)cc(C)c32)cc1`, for which, under “in Cc1ccccc1”, the fluorescence lifetime was 4.86 ns.
The compound `c1ccc([B-]2(c3ccccc3)Oc3ccc4ccccc4c3-c3c4ccccc4nc[n+]32)cc1` returned a fluorescence lifetime (in Cc1ccccc1) of 9.59 ns.
`C(=C\c1c2ccccc2cc2ccccc12)/c1cccc2ccccc12`: the fluorescence lifetime runs as follows: (in CC1CCCCC1) 5 ns; (in CC#N) 4.5 ns.
`CN1/C(=C/C=C/C2=[N+](CCCCCC(=O)O)c3ccc(S(=O)(=O)[O-])cc3C2(C)C)C(C)(C)c2cc(S(=O)(=O)[O-])ccc21`: the fluorescence lifetime (in O) turned out to be 0.3 ns.
As to `CNc1ccc2c(c1)-c1ccccc1C2=O`, the fluorescence lifetime came out at 4.3 ns (in CC#N) and 9.4 ns (in c1ccccc1).
As to `CCN(CC)c1ccc2c(c1)oc(=O)c1cnc3c(c(C)nn3-c3ccccc3)c12`, the fluorescence lifetime (in ClCCl) was determined as 3.34 ns.
For `Cc1cccc2nc3c(=O)[nH]c(=O)[nH]c3nc12`, the fluorescence lifetime (in C1COCCO1) amounted to 0.5 ns; the fluorescence lifetime (in CC#N) was 0.7 ns; the fluorescence lifetime (in CCO) was 1.35 ns; the fluorescence lifetime (in CO) is 1.6 ns; the fluorescence lifetime (in ClCCCl) worked out at 0.74 ns; the fluorescence lifetime (in O) amounted to 7.3 ns.
Take `COc1ccc(N(c2ccc(OC)cc2)c2cc3ccc4cc(B(c5c(C)cc(C)cc5C)c5c(C)cc(C)cc5C)cc5ccc(c2)c3c45)cc1`: the fluorescence lifetime is, setting by setting: (in C1CCOC1) 6.1 ns; (in CC(C)=O) 3.2 ns; (in CCCCCC) 7.7 ns; (in Cc1ccccc1) 8.7 ns; (in ClC(Cl)Cl) 6.5 ns; (in ClCCl) 6.5 ns.
Consider `c1ccc(N(c2ccccc2)c2ccc(-c3cccc4nc5ccccc5cc34)cc2)cc1`, for which the fluorescence lifetime by setting is: (in CC#N) 6.83 ns; (in CCCCCC) 1.95 ns; (in CCOCC) 6.67 ns; (in ClCCl) 14.5 ns.
`Cc1nc(-c2cc(N)ccc2O)n2c1CCCC2` displayed a fluorescence lifetime (in ClCCl) of 0.834 ns.
As to `N#Cc1ccc(/C=C/c2ccc(C=C(c3ccccc3)c3ccccc3)cc2)cc1`, the fluorescence lifetime (in C1CCOC1) was 0.5 ns.
Regarding `O=c1c2ccccc2n2c3ccc(-c4ccccc4)cc3c(=O)c3cccc1c32`, the fluorescence lifetime runs as follows: (in c1cc(-c2cccc(-n3c4ccccc4c4ccccc43)c2)cc(-n2c3ccccc3c3ccccc32)c1) 5.5 ns; (in c1cc(-n2c3ccccc3c3ccccc32)cc(-n2c3ccccc3c3ccccc32)c1) 5.5 ns.
In the case of `Nc1ccc2c(C(F)(F)F)cc(=O)oc2c1`, the fluorescence lifetime (in C1CCC2CCCCC2C1) was 1.9 ns; the fluorescence lifetime (in C1CCCCC1) turned out to be 1.2 ns; the fluorescence lifetime (in C1COCCO1) came to 4.65 ns; the fluorescence lifetime (in CC1CCCCC1) came to 1.22 ns; the fluorescence lifetime (in CC#N) was 5.2 ns and 5.13 ns; the fluorescence lifetime (in CC(C)=O) worked out at 4.97 ns. Besides, the fluorescence lifetime turned out to be 5.28 ns (in CC(C)O); 0.842 ns (in CCC(C)CC); 0.406 ns (in CCCC(C)C); 0.854 ns (in CCCCCC); 5.4 ns (in CCCCCCCCO); 5.29 ns (in CCCCCCO). Moreover, the fluorescence lifetime by setting is: (in CCCCO) 5.24 ns; (in CCO) 5.38 ns; (in CCOC(C)=O) 4.67 ns; (in CN(C)C=O) 5.22 ns; (in CO) 5.31 ns; (in CS(C)=O) 5 ns.
As to `Cc1cc2c(o1)c(C)cc1ccc(=O)oc12`, the fluorescence lifetime runs as follows: (in C1CCCCC1) 0.02 ns; (in C1COCCO1) 0.02 ns; (in CC#N) 0.02 ns; (in CCO) 2.3 ns; (in OCC(F)(F)F) 2.8 ns.
Regarding `O=c1cc(C(F)(F)F)c2cc3c4c(c2o1)CCCN4CCC3`, the fluorescence lifetime was 4.3 ns (in C1CCCCC1); 5.6 ns (in CC#N); 6.55 ns (in CCC#N); 5.72 ns (in CCCCCCCl); 5.78 ns (in CCCCl); 3.4 ns and 4.56 ns (in CCO). In addition, the fluorescence lifetime is, setting by setting: (in CCOC(C)=O) 5.4 ns; (in OCC(F)(F)F) 3.97 ns; (in OCC(O)CO) 3.5 ns.
As for `CN(C)c1ccc(/C=C/c2ccc(-c3nc(C#N)c(C#N)n3C)cc2)cc1`, the fluorescence lifetime is 0.7 ns (in C1CCCCC1) and 0.7 ns (in ClC(Cl)Cl).
Regarding `CC(C)(C)c1ccc2c(c1)c1cc(C(C)(C)C)ccc1n2-c1ccc(C#Cc2ccc3c4ccc(C#Cc5ccc(/C=C(/C#N)C(=O)O)cc5)cc4n(-c4ccc(C(F)(F)F)cc4)c3c2)cc1`, under “in ClCCl”, the fluorescence lifetime was 1.27 ns.
Compound `C(#Cc1ccc(C#Cc2ccc(C#Cc3ccccc3)cc2)cc1)c1ccccc1` had a fluorescence lifetime (in ClC(Cl)Cl) of 1.7 ns.
`C/C(=N\Nc1ccc(C#N)cc1)c1cccc(/C(C)=N/Nc2ccc(C#N)cc2)c1`: the fluorescence lifetime (in CO) came out at 1.27 ns.
In the case of `O=[N+]([O-])c1ccc(C#Cc2ccc3ccc(C#Cc4ccc([N+](=O)[O-])cc4)cc3c2)cc1`, for the setting “in ClCCl”, the fluorescence lifetime was 0.27 ns.
`CCCCCCOc1ccc(N(c2ccc(OCCCCCC)cc2)c2ccc(-c3sc(-c4ccc(N(c5ccc(OCCCCCC)cc5)c5ccc(OCCCCCC)cc5)cc4)c4nc(-c5ccc(OC)cc5)c(-c5ccc(OC)cc5)nc34)cc2)cc1` gave a fluorescence lifetime (in CN(C)C=O) of 0.57 ns.
Take `Cc1cc(C)n2c1C=C1c3ccccc3C(c3ccc[nH]3)=[N+]1[B-]2(F)F`: the fluorescence lifetime came to 7.36 ns (in C1CCOC1); 7.41 ns (in CC#N); 7.93 ns (in CCCCCC); 7.47 ns (in CO); 6.82 ns (in Cc1ccccc1); 7.28 ns (in ClCCl).
`CN(C)c1ccc2nc(-c3ccc(C(=O)O)cc3)sc2c1` came in with a fluorescence lifetime (in C1CCCCC1) of 2.4 ns and a fluorescence lifetime (in c1ccccc1) of 2.5 ns.
Compound `O=C(O)CCCCCn1c2ccc(Br)cc2c(=O)c2cc3c(cc21)c(=O)c1cc(Br)ccc1n3CCCCCC(=O)O` returned a fluorescence lifetime (in CO) of 17.3 ns.
On to `Nc1ccc2c(c1)C(=O)NC2=O`, for which the fluorescence lifetime is 12.4 ns and 20.8 ns (in C1CCOC1); 15 ns (in C1COCCO1); 14 ns (in CC#N); 10 ns (in CCO); 22 ns (in CN(C)C=O).
Under “in CC#N”, `Cc1ccc(-[c+]2c3ccccc3sc3ccccc32)cc1` gave a fluorescence lifetime of 1 ns.
On to `F[B-]1(F)n2c(-c3cccs3)cc(-c3cccs3)c2N=C2C(c3cccs3)=CC(c3cccs3)=[N+]21`, for which the fluorescence lifetime by setting is: (in C1CCOC1) 1.95 ns; (in CC#N) 2.23 ns; (in CS(C)=O) 2.31 ns; (in Cc1ccccc1) 2.21 ns; (in ClCCl) 2.36 ns.
In turn, `CCCCCCC(CCCCCC)N1C(=O)c2cccc3c(-c4ccc(C#N)cc4)ccc(c23)C1=O` yielded a fluorescence lifetime (in CCCCCC) of 1.02 ns; a fluorescence lifetime (in CCCCCCCCCCCCCC) of 0.994 ns; a fluorescence lifetime (in CCCCCCCCCCCO) of 2.12 ns; a fluorescence lifetime (in CCCCO) of 2.21 ns; a fluorescence lifetime (in CN(C)C=O) of 2.15 ns; a fluorescence lifetime (in Cc1ccccc1) of 1.16 ns. The compound further gave a fluorescence lifetime (in ClC(Cl)Cl) of 1.34 ns.
Under setting [1], `CC1(C)c2ccccc2N(c2ccc3c(c2)Oc2ccccc2S3(=O)=O)c2ccccc21` gave a fluorescence lifetime of 29 ns.
For the compound `COc1ccc(-c2nnc(-c3cc(-c4nnc(-c5ccc(OC)cc5)o4)c(-n4c5ccccc5c5ccccc54)cc3-n3c4ccccc4c4ccccc43)o2)cc1`, the fluorescence lifetime amounted to 5.1 ns (in Cc1ccccc1) and 7.3 ns under setting [1].
As to `CN(C)c1ccc2c(-c3cc(C(=O)[O-])ccc3C(=O)[O-])c3ccc(=[N+](C)C)cc-3oc2c1`, the fluorescence lifetime was determined as 3.3 ns (in CCO) and 2.36 ns (in O).
